Patent US11110060B2, “Compositions and methods for delivering pharmaceutical agents” (Arizona Board of Regents on Behalf of the University of …, priority 2017, dated 2021)

What was measured:
[1] = test system: chronic wounds in diabetic and healthy mice; assay: Wound healing in chronic wounds in diabetic (ob/ob) and healthy mice; format: in vivo
Protocol: FIG. 25: suramin treatment results in increased granulation tissue and wound contraction. A) control. B) 0.15 μg surmain-treated; C) 1.5 μg surmain-treated; and d) 15 μg surmain-treated.

[2] = test system: human buccal cell line (T146); assay: In vitro viability of human buccal cell line (T146), dose-response for safety/toxicity; format: cell-based; conditions: dose-response of sodium suramin, FIG. 8
Excerpt: FIG. 8: In vitro viability of human buccal cell line (T146): dose-response of sodium suramin for safety/toxicity.
Suramin alone is amorphous or liquid-crystalline (FIGS. 5-7) and is safe in a human cell line (FIG. 8).

[3] = mice, 0.15, 1.5 and 15 μg suramin-treated vs control, FIG. 25

Cc1ccc(C(=O)Nc2ccc(S(=O)(=O)O)c3cc(S(=O)(=O)O)cc(S(=O)(=O)O)c23)cc1NC(=O)c1cccc(NC(=O)Nc2cccc(C(=O)Nc3cc(C(=O)Nc4ccc(S(=O)(=O)O)c5cc(S(=O)(=O)O)cc(S(=O)(=O)O)c45)ccc3C)c2)c1 [suramin]
granulation tissue [1, 3]: increased
wound contraction [1, 3]: increased
wound healing relative to controls ([1]; ob/ob mice, suramin treatment at different concentrations, FIG. 24): accelerated wound healing
safety in a human cell line (in vitro viability) [2]: safe
